Compound: C1CC(C2=C(C1)C3=C(N2)C=CC(=C3)Cl)C(=O)N [Selisistat] + CCNC(=O)c1noc(-c2cc(C(C)C)c(O)cc2O)c1-c1ccc(CN2CCOCC2)cc1 [Luminespib] (partner 0.01 µM)
Assay: relative viability (nuclei count vs DMSO), 5 days (fraction); higher = more cells survive
Settings: first compound 0.4 µM
Procedure, shortened: (§1)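 A single step with final 0.05% Triton X-100, 1% formaldehyde and 1 ug/ml Hoechst fixed the cells and stained nuclei 5 days after treatment. Lung cancer cell lines in 1536-well plates had been treated by pin tool the day after seeding with one drug alone or a fixed anchor-drug dose plus five library-drug doses (not always all listed) in √10 steps, and nuclei were counted on 4× images. Relative viability is the ratio of nuclei in treated wells to nuclei in vehicle wells, taken as the median of duplicate plates.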

Cell Line	relative viability
HARA	0.909
NCI-H322M	0.875
LCLC-97TM1	0.74
NCI-H2009	1.07
A-427	0.882
NCI-H441	0.294
NCI-H661	0.977
NCI-H1734	0.173
NCI-H460	0.0268
NCI-H2347	0.322
SK-LU-1	0.202
NCI-H1395	0.871
201T	1.14
NCI-H1915	0.839
HCC-827	0.619

Same assay, conditions: first compound 1.265 µM

Cell Line	relative viability
HARA	1.02
NCI-H322M	0.82
LCLC-97TM1	0.679
NCI-H2009	1.05
A-427	0.729
NCI-H441	0.382
NCI-H661	0.966
NCI-H1734	0.194
NCI-H460	0.0346
NCI-H2347	0.406
SK-LU-1	0.176
NCI-H1395	0.682
201T	1.12
NCI-H1915	0.775
HCC-827	0.6

Same assay, conditions: first compound 4 µM

Cell Line	relative viability
HARA	0.846
NCI-H322M	0.562
A-427	0.881
NCI-H441	0.349
NCI-H661	0.928
NCI-H1734	0.223
NCI-H460	0.0301
NCI-H2347	0.186
SK-LU-1	0.189
NCI-H1395	0.702
201T	0.983
NCI-H1915	0.775
HCC-827	0.482

Same assay, conditions: first compound 12.65 µM

Cell Line	relative viability
HARA	0.584
NCI-H322M	0.868
LCLC-97TM1	0.619
NCI-H2009	0.944
A-427	0.977
NCI-H441	0.339
NCI-H661	0.833
NCI-H1734	0.208
NCI-H460	0.0377
NCI-H2347	0.283
SK-LU-1	0.213
NCI-H1395	0.66
201T	1.04
NCI-H1915	0.695
HCC-827	0.575

Same assay, conditions: first compound 40 µM

Cell Line	relative viability
HARA	1.04
NCI-H322M	0.812
LCLC-97TM1	0.724
NCI-H2009	0.944
A-427	0.949
NCI-H441	0.344
NCI-H661	0.732
NCI-H1734	0.216
NCI-H460	0.0409
NCI-H2347	1.01
SK-LU-1	0.227
NCI-H1395	0.455
201T	1.01
NCI-H1915	0.75
HCC-827	0.832

Compound: c1ccc2c(CCNc3ccc(Nc4ccncc4)cc3)c[nH]c2c1 [Serdemetan] + Cc1cc(Nc2cc(N3CCN(C)CC3)nc(Sc3ccc(NC(=O)C4CC4)cc3)n2)n[nH]1 [Tozasertib] (partner 0.1 µM)
Assay: as above
Settings: first compound 0.04 µM
Procedure, shortened: as §1

Cell Line	relative viability
HARA	0.0876
NCI-H322M	0.447
LCLC-97TM1	0.256
NCI-H2009	0.7
A-427	0.2
NCI-H441	0.719
NCI-H661	0.362
NCI-H1734	0.29
NCI-H460	0.647
NCI-H2347	0.623
SK-LU-1	0.378
NCI-H1395	0.736
201T	0.983
NCI-H1915	0.406
HCC-827	0.406

Same assay, conditions: first compound 0.1265 µM

Cell Line	relative viability
HARA	0.0858
NCI-H322M	0.457
LCLC-97TM1	0.202
NCI-H2009	0.712
A-427	0.198
NCI-H441	0.669
NCI-H661	0.381
NCI-H1734	0.235
NCI-H460	0.403
NCI-H2347	0.602
SK-LU-1	0.298
NCI-H1395	0.742
201T	0.939
NCI-H1915	0.416
HCC-827	0.393

Same assay, conditions: first compound 0.4 µM

Cell Line	relative viability
HARA	0.0868
NCI-H322M	0.484
LCLC-97TM1	0.235
NCI-H2009	0.705
A-427	0.192
NCI-H441	0.687
NCI-H661	0.385
NCI-H1734	0.209
NCI-H460	0.399
NCI-H2347	0.572
SK-LU-1	0.337
NCI-H1395	0.838
201T	0.925
NCI-H1915	0.38

Same assay, conditions: first compound 1.265 µM

Cell Line	relative viability
HARA	0.0805
NCI-H322M	0.35
NCI-H2009	0.675
A-427	0.165
NCI-H441	0.709
NCI-H661	0.308
NCI-H1734	0.142
NCI-H460	0.402
NCI-H2347	0.588
NCI-H1395	0.751
201T	0.787
NCI-H1915	0.317
HCC-827	0.297

Same assay, conditions: first compound 4 µM

Cell Line	relative viability
HARA	0.0776
NCI-H322M	0.437
LCLC-97TM1	0.169
NCI-H2009	0.625
A-427	0.16
NCI-H441	0.605
NCI-H661	0.352
NCI-H1734	0.134
NCI-H460	0.12
NCI-H2347	0.399
SK-LU-1	0.294
NCI-H1395	0.513
201T	0.497
NCI-H1915	0.396
HCC-827	0.308

Compound: C1CC(C2=C(C1)C3=C(N2)C=CC(=C3)Cl)C(=O)N [Selisistat] + Cc1nc(Nc2ncc(C(=O)Nc3c(C)cccc3Cl)s2)cc(N2CCN(CCO)CC2)n1 [Dasatinib] (partner 0.075 µM)
Assay: as above
Settings: first compound 0.4 µM
Procedure, shortened: as §1

Cell Line	relative viability
HARA	0.25
NCI-H322M	0.266
LCLC-97TM1	0.8
NCI-H2009	0.323
A-427	0.744
NCI-H441	0.623
NCI-H661	0.806
NCI-H1734	0.48
NCI-H460	0.61
NCI-H2347	0.343
SK-LU-1	0.166
NCI-H1395	0.468
201T	0.588
NCI-H1915	0.322
HCC-827	0.393

Same assay, conditions: first compound 1.265 µM

Cell Line	relative viability
HARA	0.299
NCI-H322M	0.259
LCLC-97TM1	0.887
NCI-H2009	0.267
A-427	0.657
NCI-H441	0.671
NCI-H661	0.94
NCI-H1734	0.469
NCI-H460	0.513
NCI-H2347	0.299
SK-LU-1	0.176
NCI-H1395	0.426
201T	0.551
NCI-H1915	0.312
HCC-827	0.38

Same assay, conditions: first compound 4 µM

Cell Line	relative viability
HARA	0.202
NCI-H322M	0.243
NCI-H2009	0.208
A-427	0.584
NCI-H441	0.427
NCI-H661	0.57
NCI-H1734	0.622
NCI-H460	0.196
NCI-H2347	0.171
SK-LU-1	0.186
NCI-H1395	0.407
201T	0.581
NCI-H1915	0.261
HCC-827	0.306

Same assay, conditions: first compound 12.65 µM

Cell Line	relative viability
HARA	0.166
NCI-H322M	0.26
LCLC-97TM1	0.889
NCI-H2009	0.239
A-427	0.752
NCI-H441	0.549
NCI-H661	0.726
NCI-H1734	0.502
NCI-H460	0.478
NCI-H2347	0.344
SK-LU-1	0.191
NCI-H1395	0.402
201T	0.528
NCI-H1915	0.319
HCC-827	0.421

Same assay, conditions: first compound 40 µM

Cell Line	relative viability
HARA	0.264
NCI-H322M	0.26
LCLC-97TM1	0.944
NCI-H2009	0.241
A-427	0.772
NCI-H441	0.62
NCI-H661	0.694
NCI-H1734	0.464
NCI-H460	0.477
NCI-H2347	0.31
SK-LU-1	0.184
NCI-H1395	0.389
201T	0.534
NCI-H1915	0.313
HCC-827	0.301

Compound: C1CC(C2=C(C1)C3=C(N2)C=CC(=C3)Cl)C(=O)N [Selisistat] + O=C(CCCCCCC(=O)Nc1ccccc1)NO [Vorinostat] (partner 1 µM)
Assay: as above
Settings: first compound 0.4 µM
Procedure, shortened: as §1

Cell Line	relative viability
HARA	0.436
NCI-H322M	0.857
LCLC-97TM1	0.646
NCI-H2009	0.774
A-427	0.905
NCI-H441	0.851
NCI-H661	0.824
NCI-H1734	0.871
NCI-H460	0.691
NCI-H2347	0.478
SK-LU-1	0.747
NCI-H1395	0.827
201T	1.07
NCI-H1915	0.494
HCC-827	0.851

Same assay, conditions: first compound 1.265 µM

Cell Line	relative viability
HARA	0.552
NCI-H322M	0.921
LCLC-97TM1	0.72
NCI-H2009	0.786
A-427	0.934
NCI-H441	0.723
NCI-H661	0.77
NCI-H1734	0.68
NCI-H460	0.772
NCI-H2347	0.484
SK-LU-1	0.792
NCI-H1395	0.671
201T	0.98
NCI-H1915	0.538
HCC-827	0.829

Same assay, conditions: first compound 4 µM

Cell Line	relative viability
HARA	0.529
NCI-H2009	0.77
NCI-H441	0.805
NCI-H661	0.829
NCI-H1734	0.783
NCI-H460	0.808
SK-LU-1	1.02
201T	0.85
NCI-H1915	0.661
HCC-827	0.862

Same assay, conditions: first compound 12.65 µM

Cell Line	relative viability
HARA	0.756
NCI-H322M	0.893
LCLC-97TM1	0.597
NCI-H2009	0.741
A-427	0.881
NCI-H441	0.666
NCI-H661	0.727
NCI-H1734	0.843
NCI-H460	0.723
NCI-H2347	0.666
SK-LU-1	0.821
NCI-H1395	0.536
201T	1
NCI-H1915	0.538
HCC-827	0.862

Same assay, conditions: first compound 40 µM

Cell Line	relative viability
HARA	0.85
NCI-H322M	1.02
LCLC-97TM1	0.75
NCI-H2009	0.793
A-427	0.875
NCI-H441	1
NCI-H661	0.66
NCI-H1734	0.85
NCI-H460	0.807
NCI-H2347	0.772
SK-LU-1	0.927
NCI-H1395	0.702
201T	0.995
NCI-H1915	0.641
HCC-827	0.837
